Experimental findings from patent publication US20150352108A1, “AMINO-PYRIMIDINE COMPOUNDS AS INHIBITORS OF TBK1 AND/OR IKK EPSILON” (Alzheimer's Institute of America, priority 2009, published 2015) are described below.

One experiment deals with T1, IKKε (Homo sapiens, UniProt Q14164).
T1 construct: His-tag; made in house; host or cells: Sf9 insect cells
T1 sequence (Q14164 1-716): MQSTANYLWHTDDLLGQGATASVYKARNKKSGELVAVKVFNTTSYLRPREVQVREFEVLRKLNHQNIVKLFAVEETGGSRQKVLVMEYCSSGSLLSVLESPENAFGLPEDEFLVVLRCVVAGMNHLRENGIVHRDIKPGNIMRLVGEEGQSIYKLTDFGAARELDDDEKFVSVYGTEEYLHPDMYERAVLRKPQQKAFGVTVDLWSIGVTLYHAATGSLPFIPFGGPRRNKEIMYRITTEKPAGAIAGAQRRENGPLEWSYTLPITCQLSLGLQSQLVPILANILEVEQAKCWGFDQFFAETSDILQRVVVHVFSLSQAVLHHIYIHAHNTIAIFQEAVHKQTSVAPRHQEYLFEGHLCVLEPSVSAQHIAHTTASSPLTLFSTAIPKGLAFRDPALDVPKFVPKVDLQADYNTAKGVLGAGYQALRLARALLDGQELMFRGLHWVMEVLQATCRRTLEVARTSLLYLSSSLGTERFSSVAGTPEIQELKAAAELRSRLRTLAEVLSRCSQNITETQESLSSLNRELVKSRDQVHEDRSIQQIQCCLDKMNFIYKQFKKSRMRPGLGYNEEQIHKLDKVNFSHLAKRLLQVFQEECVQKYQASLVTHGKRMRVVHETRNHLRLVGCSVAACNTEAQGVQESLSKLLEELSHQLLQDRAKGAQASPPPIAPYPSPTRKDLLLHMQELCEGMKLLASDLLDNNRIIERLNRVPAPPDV
The experiment is described as follows: In-vitro IKKε kinase assay ([γ33]ATP filter-plate). Type of experiment: biochemical. The procedure, abridged:
(§1)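 Phosphorylation of casein or myelin basic protein was counted by P-81 filter capture after 30-45 min reactions stopped with phosphoric acid, with counts normalized to DMSO after background subtraction. ATP was twice Km: 60 μM for TBK1 and 32 μM for IKKε, plus [γ33]ATP. Sf9-expressed His-tag enzymes were used at normal/sensitized levels of 0.1/0.02 μg/ml (TBK1) and 0.1/0.015 μg/ml (IKKε).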

The target of another experiment is T2, TBK1 (Homo sapiens, UniProt Q9UHD2).
T2 construct: His-tag; made in house; host or cells: Sf9 insect cells
T2 sequence (Q9UHD2 1-729): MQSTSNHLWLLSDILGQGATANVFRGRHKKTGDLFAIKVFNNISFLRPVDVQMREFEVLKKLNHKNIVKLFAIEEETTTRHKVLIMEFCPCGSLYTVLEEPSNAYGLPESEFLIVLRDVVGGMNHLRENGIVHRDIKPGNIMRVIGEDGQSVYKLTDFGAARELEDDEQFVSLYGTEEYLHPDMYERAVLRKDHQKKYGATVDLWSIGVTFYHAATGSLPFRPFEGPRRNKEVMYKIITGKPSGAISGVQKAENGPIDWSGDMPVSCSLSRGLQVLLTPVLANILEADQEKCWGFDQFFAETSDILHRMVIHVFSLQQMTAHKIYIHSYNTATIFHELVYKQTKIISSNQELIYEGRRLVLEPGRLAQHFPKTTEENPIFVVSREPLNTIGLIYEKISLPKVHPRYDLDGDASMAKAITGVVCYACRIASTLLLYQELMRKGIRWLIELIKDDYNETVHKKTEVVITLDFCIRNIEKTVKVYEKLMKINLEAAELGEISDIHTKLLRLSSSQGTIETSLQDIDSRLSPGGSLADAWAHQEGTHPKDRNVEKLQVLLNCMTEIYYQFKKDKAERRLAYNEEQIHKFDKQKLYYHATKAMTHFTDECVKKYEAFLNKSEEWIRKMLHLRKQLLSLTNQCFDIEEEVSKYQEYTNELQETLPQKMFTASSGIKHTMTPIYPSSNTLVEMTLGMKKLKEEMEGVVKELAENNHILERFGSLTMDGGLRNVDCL
The experiment is described as follows: In-vitro TBK1 kinase assay ([γ33]ATP filter-plate). Type of experiment: biochemical. In short, it runs like this:
as §1

The mark [1] stands for this setting: text bins, read-out: IC50 for inhibition of the kinase activity of IKKε.
Setting [2] is: text bins, read-out: IC50 for inhibition of the kinase activity of TBK1.

Read-outs that look alike come from different tables or passages of the source.

For `CC(C)C(=O)Nc1ccc(-c2ccnc(Nc3cccc(CCO)c3)n2)cc1C#N` [compound 450, N-[2-cyano-4-(2-{[3-(2-hydroxyethyl)phenyl]amino}pyrimidin-4-yl)phenyl]-2-methylpropanamide], the figures for the IC50 at IKKε (setting [1]) and on TBK1 (setting [2]) were 5 to 50 nM and under 10 nM, respectively.

With `CCN(CC)CCN(CC)C(=O)Cc1ccc(Nc2nccc(-c3ccc(NC(=O)C(C)C)c(C#N)c3)n2)cc1` [compound 425, N-[2-cyano-4-(2-{[4-(2-{[2-(diethylamino)ethyl] (ethyl)amino}-2-oxoethyl)phenyl]amino}pyrimidin-4-yl)phenyl]-2-methylpropanamide], the IC50 at IKKε (setting [1]) was 5 to 50 nM; at TBK1 (setting [2]), under 10 nM.

Turning to `COc1cc(-c2ccnc(Nc3ccc(N4CCOCC4)cc3)n2)cc(C#N)c1OC1CCOCC1` [compound 467, 3-methoxy-5-(2-{[4-(morpholin-4-yl)phenyl]amino}pyrimidin-4-yl)-2-(tetrahydro-2H-pyran-4-yloxy)benzonitrile], the IC50 was 3.5 nM at IKKε (Table 3, read-out: IKKε IC50); under 5 nM on IKKε (setting [1]); 0.2 nM on TBK1 (Table 3, read-out: TBK1 IC50); under 10 nM at TBK1 (setting [2]).

Regarding `N#Cc1cc(-c2ccnc(Nc3ccc(N4CCOCC4)cc3)n2)ccc1OCC1CCN(C(=O)CO)C1` (stereo not drawn) [compound 461, 2-{[1-(hydroxyacetyl)pyrrolidin-3-yl]methoxy}-5-(2-{[4-(morpholin-4-yl)phenyl]amino}pyrimidin-4-yl)benzonitrile], the IC50 at IKKε (setting [1]) was 5 to 50 nM; at TBK1 (setting [2]), under 10 nM.

On to `N#Cc1cc(-c2ccnc(Nc3ccc(F)c(OCC(O)CO)c3)n2)ccc1OC1CCOCC1` (stereo not drawn) [compound 608, 5-(2-{[3-(2,3-Dihydroxypropoxy)-4-fluorophenyl]amino}pyrimidin-4-yl)-2-(tetrahydro-2H-pyran-4-yloxy)benzonitrile], for which the values for the IC50 at IKKε (setting [1]) and on TBK1 (setting [2]) were under 5 nM and under 10 nM, respectively.

In the case of `CC(C)COc1ccc(-c2ccnc(Nc3cccc(CS(=O)(=O)NCCO)c3)n2)cc1C#N` [compound 534, 1-[3-({4-[3-Cyano-4-(2-methylpropoxy)phenyl]pyrimidin-2-yl}amino)phenyl]-N-(2-hydroxyethyl) methanesulfonamide], the IC50 on IKKε (Table 3, read-out: IKKε IC50) was 0.8 nM; on IKKε (setting [1]), under 5 nM; on TBK1 (Table 3, read-out: TBK1 IC50), 0.4 nM; at TBK1 (setting [2]), under 10 nM.

As for `COc1ccc(-c2ccnc(Nc3cccc(OCCN4CCOCC4)c3)n2)cc1C#N` [compound 314, 2-Methoxy-5-[2-({3-[2-(morpholin-4-yl)ethoxy]phenyl}amino)pyrimidin-4-yl]benzonitrile], the IC50 on IKKε (setting [1]) was 5 to 50 nM; at TBK1 (setting [2]), 10 to 100 nM.

Turning to `N#Cc1cccc(-c2ccnc(Nc3cccc(NC(=O)NC4CCCC4)c3)n2)c1` [Example 201, 1-(3-{[4-(3-Cyanophenyl)pyrimidin-2-yl]amino}phenyl)-3-cyclopentylurea], the IC50 at IKKε (setting [1]) was in the range of 5 to 50 nM; on TBK1 (setting [2]), 10 to 100 nM.

In the case of `COc1ccc(-c2ccnc(Nc3cccc(CN(C)CC(=O)N(C)C)c3)n2)cc1C#N` [Example 67, N~2~-(3-{[4-(3-Cyano-4-methoxyphenyl)pyrimidin-2-yl]amino}benzyl)-N,N,N~2~- trimethylglycinamide], the IC50 on IKKε (setting [1]) was 5 to 50 nM; on TBK1 (setting [2]), 10 to 100 nM.

For `C[C@H](O)C(=O)N1CCC(Oc2ccc(-c3ccnc(Nc4ccc(C(=O)NCCCN(C)C)cc4)n3)cc2C#N)CC1` [Example 4, 4-({4-[3-cyano-4-({1-[(2S)-2-hydroxypropanoyl]piperidin-4-yl}oxy)phenyl]pyrimidin-2-yl}amino)-N-[3-(dimethylamino)propyl]benzamide], the IC50 on IKKε (setting [1]) is under 5 nM; at TBK1 (setting [2]) it was under 10 nM.

On to `N#Cc1cc(-c2ccnc(Nc3ccc(N4CCOCC4)cc3)n2)ccc1OC1CCN(CCO)CC1` [Example 49, 2-{[1-(2-Hydroxyethyl)piperidin-4-yl]oxy}-5-(2-{[4-(morpholin-4-yl)phenyl]amino}pyrimidin-4-yl)benzonitrile], for which the IC50 on IKKε (setting [1]) is 5 to 50 nM; on TBK1 (setting [2]) it was under 10 nM.

Turning to `COC1CN(c2cc(Nc3nccc(-c4ccc(OC5CCOCC5)c(C#N)c4)n3)ccc2C)C1` [compound 572, 5-(2-{[3-(3-Methoxyazetidin-1-yl)-4-methylphenyl]amino}pyrimidin-4-yl)-2-(tetrahydro-2H-pyran-4-yloxy)benzonitrile], the IC50 at IKKε (setting [1]) was under 5 nM; on TBK1 (setting [2]) it was under 10 nM.

As to `COc1ccc(Nc2nccc(-c3cccc(C#N)c3)n2)cc1Cl` [compound 318, 3-{2-[(3-Chloro-4-methoxyphenyl)amino]pyrimidin-4-yl}benzonitrile], the IC50 was in the range of 5 to 50 nM on IKKε (setting [1]) and 10 to 100 nM at TBK1 (setting [2]).

Regarding `CC(=O)N1CCN(C(=O)Nc2ccc(Nc3nccc(-c4ccc(OC5CCOCC5)c(C#N)c4)n3)cc2)CC1` [Example 19, 4-acetyl-N-[4-({4-[3-cyano-4-(tetrahydro-2H-pyran-4-yloxy)phenyl]pyrimidin-2-yl}amino)phenyl] piperazine-1-carboxamide], the IC50 on IKKε (setting [1]) was 5 to 50 nM; on TBK1 (setting [2]) it was under 10 nM.

For `COc1ccc(-c2ccnc(Nc3cc(CN4CCOCC4)c(OC)c(OC)c3)n2)cc1C#N` [Example 226, 5-(2-{[3,4-Dimethoxy-5-(morpholin-4-ylmethyl)phenyl]amino}pyrimidin-4-yl)-2-methoxybenzonitrile], the IC50 at IKKε (setting [1]) is 5 to 50 nM; on TBK1 (setting [2]), 10 to 100 nM.

As to `N#Cc1cc(-c2ccnc(Nc3ccc(N4CCOCC4)cc3)n2)ccc1NC(=O)CN` [compound 568, N-[2-Cyano-4-(2-{[4-(morpholin-4-yl)phenyl]amino}pyrimidin-4-yl)phenyl] glycinamide], the IC50 at IKKε (setting [1]) lay within 5 to 50 nM; at TBK1 (setting [2]), 10 to 100 nM.

For the compound `COCC(=O)Nc1cc(Nc2nccc(-c3ccc(OC)c(C#N)c3)n2)cc(OC)c1` [Example 278, N-(3-{[4-(3-Cyano-4-methoxyphenyl)pyrimidin-2-yl]amino}-5-methoxyphenyl)-2-methoxyacetamide], the results for the IC50 on IKKε (setting [1]) and on TBK1 (setting [2]) were 5 to 50 nM and 10 to 100 nM, respectively.

Turning to `COc1ccc(Nc2nccc(-c3ccc(NC(C)=O)c(C#N)c3)n2)cc1OC` [Example 136, N-(2-Cyano-4-{2-[(3,4-dimethoxyphenyl)amino]pyrimidin-4-yl}phenyl)acetamide], the IC50 is 5 to 50 nM on IKKε (setting [1]) and 10 to 100 nM at TBK1 (setting [2]).

Take `COc1cc(Nc2nccc(-c3ccc(OC4CCOCC4)c(C#N)c3)n2)ccc1S(=O)(=O)N(C)CCCN(C)C` [compound 397]: the IC50 at IKKε (setting [1]) was under 5 nM; on TBK1 (setting [2]), under 10 nM.

`COc1ccc(-c2ccnc(Nc3cccc(Cl)c3)n2)cc1C#N` [Example 260, 5-{2-[(3-Chlorophenyl)amino]pyrimidin-4-yl}-2-methoxybenzonitrile]: the IC50 on IKKε (setting [1]) fell in the range of 50 to 500 nM; at TBK1 (setting [2]) it was 10 to 100 nM.

`CC(C)C(=O)Nc1ccc(-c2ccnc(Nc3ccc(F)c(OCCCN4CCOCC4)c3)n2)cc1C#N` [compound 411, N-{2-Cyano-4-[2-({4-fluoro-3-[3-(morpholin-4-yl)propoxy]phenyl}amino)pyrimidin-4-yl]phenyl}-2-methylpropanamide]: the results for the half-maximal inhibitory concentration (IC50) at IKKε (setting [1]) and on TBK1 (setting [2]) were 5 to 50 nM and 10 to 100 nM, respectively.

As to `COc1ccc(-c2ccnc(Nc3cccc(NC(=O)N4CC[C@@H](O)C4)c3)n2)cc1C#N` [compound 372, (3R)-N-(3-{[4-(3-Cyano-4-methoxyphenyl)pyrimidin-2-yl]amino}phenyl)-3-hydroxypyrrolidine-1-carboxamide], the values for the IC50 at IKKε (setting [1]) and on TBK1 (setting [2]) were 5 to 50 nM and 10 to 100 nM, respectively.

One may read the IC50 as the point on the concentration scale where inhibition reaches its midpoint.
